Biological target: T1, Human SGLT2 (hSGLT2) (Homo sapiens, UniProt P31639)
T1 construct: expressed in transfected cells
T1 sequence (P31639 1-672): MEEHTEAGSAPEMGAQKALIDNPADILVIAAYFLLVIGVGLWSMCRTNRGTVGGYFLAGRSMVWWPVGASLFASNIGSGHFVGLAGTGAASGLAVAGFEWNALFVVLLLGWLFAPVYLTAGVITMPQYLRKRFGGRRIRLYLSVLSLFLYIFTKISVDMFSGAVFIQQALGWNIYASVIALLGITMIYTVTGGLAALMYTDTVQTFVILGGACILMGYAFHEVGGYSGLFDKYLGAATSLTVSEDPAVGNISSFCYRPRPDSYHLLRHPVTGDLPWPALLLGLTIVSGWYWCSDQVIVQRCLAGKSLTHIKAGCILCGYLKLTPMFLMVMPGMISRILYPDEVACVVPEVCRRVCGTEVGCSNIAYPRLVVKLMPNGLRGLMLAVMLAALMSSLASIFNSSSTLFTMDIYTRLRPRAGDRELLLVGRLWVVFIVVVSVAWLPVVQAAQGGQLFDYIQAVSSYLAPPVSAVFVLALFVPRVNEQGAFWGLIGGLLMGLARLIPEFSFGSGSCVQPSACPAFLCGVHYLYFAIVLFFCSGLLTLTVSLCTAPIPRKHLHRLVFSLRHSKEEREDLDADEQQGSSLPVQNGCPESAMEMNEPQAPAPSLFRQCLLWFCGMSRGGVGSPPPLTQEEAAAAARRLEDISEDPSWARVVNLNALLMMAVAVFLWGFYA
Assay: Sodium-dependent glucose transport (14C-AMG uptake) assay in CHO cells stably expressing hSGLT2
Assay type: cell-based
Details: CHO cells expressing hSGLT2, 14C-AMG uptake, 37° C. for 2 h; single determinations; read-out: hSGLT2 Inhibitory Activity IC50
Text: Cloning and Cell Line Construction for Human SGLT2
Human SGLT2 (hSGLT2) gene was amplified by PCR from cDNA-Human Adult Normal Tissue Kidney (Invitrogen). The hSGLT2 sequence was cloned into pcDNA3.1(+) for mammalian expression and were stably transfected into chinese hamster ovary (CHO) cells. SGLT2-expressing clones were selected based on resistance to G418 antibiotic (Geneticin) and activity in the ^14C-α-methyl-D-glucopyranoside (^14C-AMG) uptake assay.
Inhibitory Effects on Human SGLT2 Activities
For sodium-dependent glucose transport assay, cells expressing hSGLT2 were seeded into a 96-well culture plate at a density of 5×10^4 cells/well in RPMI medium 1640 containing 10% fetal bovine serum. The cells were used 1 day after plating. They were incubated in pretreatment buffer (10 mM HEPES, 5 mM Tris, 140 mM choline chloride, 2 mM KCl, 1 mM CaCl2, and 1 mM MgCl2, pH 7.4) at 37° C. for 10 min. They were then incubated in uptake buffer (10 mM HEPES, 5 mM Tris, 140 mM NaCl, 2 mM KCl, 1 mM CaCl2, 1 mM MgCl2, and 1 mM ^14C-nonlabeled AMG, pH 7.4) containing ^14C-labeled (8 μM) and inhibitor or dimethylsulfoxide (DMSO) vehicle at 37° C. for 2 h. Cells were washed twice with washing buffer (pretreatment buffer containing 10 mM AMG at room temperature) and then the radioactivity was measured using a liquid scintillation counter. IC50 was determined by nonlinear regression analysis using GraphPad PRISM [Katsuno, K. et al. J. Pharmacol. Exp. Ther. 2007, 320, 323-330; Han, S. et al. Deabetes, 2008, 57, 1723-1729].

| IC50 [µM] | SMILES |
| --- | --- |
| 0.0215 | Cc1ccc(-c2cnc(Cc3cc([C@@H]4O[C@H](CO)[C@@H](O)[C@H](O)[C@H]4O)ccc3C)s2)cc1 [Example 36, (2R,3S,4R,5R,6S)-2-(Hydroxymethyl)-6-(4-methyl-3-((5-p-tolylthiazol-2-yl)methyl)phenyl)tetrahydro-2H-pyran-3,4,5-triol] |
| 0.0098 | Cc1ccc([C@@H]2O[C@H](CO)[C@@H](O)[C@H](O)[C@H]2O)cc1Cc1ncc(-c2ccc(F)cc2)s1 [Example 37, (2S,3R,4R,5S,6R)-2-(3-((5-(4-Fluorophenyl)thiazol-2-yl)methyl)-4-methylphenyl)-6-(hydroxymethyl)tetrahydro-2H-pyran-3,4,5-triol] |
| 0.0256 | Cc1ccc([C@@H]2O[C@H](CO)[C@@H](O)[C@H](O)[C@H]2O)cc1Cc1ncc(-c2ccc(Cl)cc2)s1 [Example 38, (2S,3R,4R,5S,6R)-2-(3-((5-(4-Chlorophenyl)thiazol-2-yl)methyl)-4-methylphenyl)-6-(hydroxymethyl)tetrahydro-2H-pyran-3,4,5-triol] |
| 0.176 | Cc1ccc([C@@H]2O[C@H](CO)[C@@H](O)[C@H](O)[C@H]2O)cc1Cc1ncc(Cc2ccccc2)s1 [Example 39, (2S,3R,4R,5S,6R)-2-(3-((5-Benzylthiazol-2-yl)methyl)-4-methylphenyl)-6-(hydroxymethyl)tetrahydro-2H-pyran-3,4,5-triol] |
| 0.00611 | OC[C@H]1O[C@@H](c2ccc(F)c(Cc3ncc(-c4ccco4)s3)c2)[C@H](O)[C@@H](O)[C@@H]1O [Example 40, (2S,3R,4R,5S,6R)-2-(4-Fluoro-3-((5-(furan-2-yl)thiazol-2-yl)methyl)phenyl)-6-(hydroxymethyl)tetrahydro-2H-pyran-3,4,5-triol] |
| 0.0305 | OC[C@H]1O[C@@H](c2ccc(F)c(Cc3ncc(-c4ccoc4)s3)c2)[C@H](O)[C@@H](O)[C@@H]1O [Example 41, (2S,3R,4R,5S,6R)-2-(4-Fluoro-3-((5-(furan-3-yl)thiazol-2-yl)methyl)phenyl)-6-(hydroxymethyl)tetrahydro-2H-pyran-3,4,5-triol] |
| 0.0254 | OC[C@H]1O[C@@H](c2ccc(F)c(Cc3ncc(-c4cccs4)s3)c2)[C@H](O)[C@@H](O)[C@@H]1O [Example 42, (2S,3R,4R,5S,6R)-2-(4-Fluoro-3-((5-(thiophen-2-yl)thiazol-2-yl)methyl)phenyl)-6-(hydroxymethyl)tetrahydro-2H-pyran-3,4,5-triol] |
| 0.0308 | OC[C@H]1O[C@@H](c2ccc(F)c(Cc3ncc(-c4ccccc4)s3)c2)[C@H](O)[C@@H](O)[C@@H]1O [Example 44, (2S,3R,4R,5S,6R)-2-(4-Fluoro-3-((5-phenylthiazol-2-yl)methyl)phenyl)-6-(hydroxymethyl)tetralrydro-2H-pyran-3,4,5-triol] |
| 0.0477 | OC[C@H]1O[C@@H](c2ccc(F)c(Cc3ncc(-c4ccc(F)cc4)s3)c2)[C@H](O)[C@@H](O)[C@@H]1O [Example 45, (2S,3R,4R,5S,6R)-2-(4-Fluoro-3-((5-(4-fluorophenyl)thiazol-2-yl)methyl)phenyl)-6-(hydroxymethyl)tetrahydro-2H-pyran-3,4,5-triol] |
| 0.00189 | OC[C@H]1O[C@@H](c2ccc(Br)c(Cc3ncc(-c4ccco4)s3)c2)[C@H](O)[C@@H](O)[C@@H]1O [Example 46, (2S,3R,4R,5S,6R)-2-(4-Bromo-3-((5-(furan-2-yl)thiazol-2-yl)methyl)phenyl)-6-(hydroxymethyl)-tetrahydro-2H-pyran-3,4,5-triol] |
| 0.0169 | OC[C@H]1O[C@@H](c2ccc(C(F)(F)F)c(Cc3ncc(-c4cccs4)s3)c2)[C@H](O)[C@@H](O)[C@@H]1O [Example 49, (2R,3S,4R,5R,6S)-2-(Hydroxymethyl)-6-(3-((5-(thiophen-2-yl)thiazol-2-yl)methyl)-4-(trifluoromethyl)phenyl)tetrahydro-2H-pyran-3,4,5-triol] |
| 0.0146 | OC[C@H]1O[C@@H](c2ccc(C(F)(F)F)c(Cc3ncc(-c4ccsc4)s3)c2)[C@H](O)[C@@H](O)[C@@H]1O [Example 50, (2R,3S,4R,5R,6S)-2-(Hydroxymethyl)-6-(3-((5-(thiophen-3-yl)thiazol-2-yl)methyl)-4-(trifluoromethyl)phenyl)tetrahydro-2H-pyran-3,4,5-triol] |
| 0.0208 | OC[C@H]1O[C@@H](c2ccc(C(F)(F)F)c(Cc3ncc(-c4ccccc4)s3)c2)[C@H](O)[C@@H](O)[C@@H]1O [Example 51, (2R,3S,4R,5R,6S)-2-(Hydroxymethyl)-6-(3-((5-phenylthiazol-2-yl)methyl)-4-(trifluoromethyl)phenyl)tetrahydro-2H-pyran-3,4,5-triol] |
| 0.0872 | OC[C@H]1O[C@@H](c2ccc(C(F)(F)F)c(Cc3ncc(-c4ccc(F)cc4)s3)c2)[C@H](O)[C@@H](O)[C@@H]1O [Example 52, (2S,3R,4R,5S,6R)-2-(3-((5-(4-Fluorophenyl)thiazol-2-yl)methyl)-4-(trifluoromethyl)phenyl)-6-(hydroxymethyl)tetrahydro-2H-pyran-3,4,5-triol] |
| 0.00349 | OC[C@H]1O[C@@H](c2cc(Cc3ncc(-c4ccco4)s3)c(Cl)cc2F)[C@H](O)[C@@H](O)[C@@H]1O [Example 53, (2S,3R,4R,5S,6R)-2-(4-Chloro-2-fluoro-5-((5-(furan-2-yl)thiazol-2-yl)methyl)phenyl)-6-(hydroxymethyl)tetrahydro-2H-pyran-3,4,5-triol] |
| 0.00535 | OC[C@H]1O[C@@H](c2cc(Cc3ncc(-c4ccoc4)s3)c(Cl)cc2F)[C@H](O)[C@@H](O)[C@@H]1O [Example 54, (2S,3R,4R,5S,6R)-2-(4-Chloro-2-fluoro-5-((5-(furan-3-yl)thiazol-2-yl)methyl)phenyl)-6-(hydroxymethyl)tetrahydro-2H-pyran-3,4,5-triol] |
| 0.00388 | OC[C@H]1O[C@@H](c2cc(Cc3ncc(-c4cccs4)s3)c(Cl)cc2F)[C@H](O)[C@@H](O)[C@@H]1O [Example 55, (2S,3R,4R,5S,6R)-2-(4-Chloro-2-fluoro-5-((5-(thiophen-2-yl)thiazol-2-yl)methyl)phenyl)-6-(hydroxymethyl)tetrahydro-2H-pyran-3,4,5-triol] |
| 0.00212 | OC[C@H]1O[C@@H](c2cc(Cc3ncc(-c4ccsc4)s3)c(Cl)cc2F)[C@H](O)[C@@H](O)[C@@H]1O [Example 56, (2S,3R,4R,5S,6R)-2-(4-Chloro-2-fluoro-5-((5-(thiophen-3-yl)thiazol-2-yl)methyl)phenyl)-6-(hydroxymethyl)tetrahydro-2H-pyran-3,4,5-triol] |
| 0.00457 | OC[C@H]1O[C@@H](c2cc(Cc3ncc(-c4ccccc4)s3)c(Cl)cc2F)[C@H](O)[C@@H](O)[C@@H]1O [Example 57, (2S,3R,4R,5S,6R)-2-(4-Chloro-2-fluoro-5-((5-phenylthiazol-2-yl)methyl)phenyl)-6-(hydroxymethyl)tetrahydro-2H-pyran-3,4,5-triol] |
| 0.00543 | OC[C@H]1O[C@@H](c2cc(Cc3ncc(-c4ccco4)s3)c(Cl)cc2Cl)[C@H](O)[C@@H](O)[C@@H]1O [Example 59, (2S,3R,4R,5S,6R)-2-(2,4-Dichloro-5-((5-(furan-2-yl)thiazol-2-yl)methyl)phenyl)-6-(hydroxymethyl)tetrahydro-2H-pyran-3,4,5-triol] |
| 0.0133 | OC[C@H]1O[C@@H](c2cc(Cc3ncc(-c4ccoc4)s3)c(Cl)cc2Cl)[C@H](O)[C@@H](O)[C@@H]1O [Example 60, (2S,3R,4R,5S,6R)-2-(2,4-Dichloro-5-((5-(furan-3-yl)thiazol-2-yl)methyl)phenyl)-6-(hydroxymethyl)tetrahydro-2H-pyran-3,4,5-triol] |
| 0.00477 | OC[C@H]1O[C@@H](c2cc(Cc3ncc(-c4cccs4)s3)c(Cl)cc2Cl)[C@H](O)[C@@H](O)[C@@H]1O [Example 61, (2S,3R,4R,5S,6R)-2-(2,4-Dichloro-5-((5-(thiophen-2-yl)thiazol-2-yl)methyl)phenyl)-6-(hydroxymethyl)tetrahydro-2H-pyran-3,4,5-triol] |
